Results on two compounds are retold here after patent US12485105B2, “Composition for suppressing obesity” (DAICEL CORPORATION, priority 2019, dated 2025).

One experiment deals with 3T3-L1 cells. The following applies: reported, Non-Patent Document 2; cited from earlier work.
The next experiment concerns rats. The settings on record: administration to rats; reported, Non-Patent Document 3; cited from earlier work.
A further experiment has as its system SREBP. The settings on record: in rats; reported, Non-Patent Document 4; cited from earlier work.
Experiment [1] deals with C57BL/6 male mice. In words: Body weight and adipose tissue fat weights of mice fed normal or high-fat diet with 8PN for 8 weeks. The experiment is classed as in vivo. The following applies: for increase in the fat weight of the subcutaneous adipose tissue: vs Group 4, FIG. 2; for increase in the fat weight of the brown adipose tissue: vs Group 4, FIG. 3; for increase in the fat weight of the mesenteric adipose tissue: vs Group 4, FIG. 4; for increase in the fat weight of the perirenal adipose tissue: vs Group 4, FIG. 5; for increase in the fat weight of the epididymal adipose tissue: vs Group 4, FIG. 6; for increase in the fat weight of the white adipose tissue: vs Group 4, total of adipose tissue other than brown, FIG. 7. The text has this:
(§1) C57BL/6 male mice (available from Japan SLC, Inc.) were arranged into the following six groups of six mice each. Note that, 8-prenylnaringenin (may be described herein as 8PN) was used as the prenylflavonoid of the present embodiment. • (Group 1) Group that ingested a normal diet without the addition of 8PN • (Group 2) Group that ingested a normal diet with the addition of 8PN (final concentration: 0.0005%) • (Group 3) Group that ingested a normal diet with the addition of 8PN (final concentration: 0.005%) • (Group 4) Group that ingested a high-fat diet without the addition of 8PN • (Group 5) Group that ingested a high-fat diet with the addition of 8PN (final concentration: 0.0005%) • (Group 6) Group that ingested a high-fat diet with the addition of 8PN addition (final concentration: 0.005%)
(§2) AIN-93M feed was used as the normal diet (control diet), and AIN-93M feed containing 30% lard was used as the high-fat diet. These feeds were mixed with 8PN for Group 2, Group 3, Group 5 and Group 6.
(§3) The mice were each raised in individual cages, were allowed to freely consume each feed and deionized water, and were raised for 8 weeks. The rearing environment included a temperature of 22±2° C., humidity without artificial control, and light-dark cycles alternated every 12 hours. After 8 weeks, the mice were slaughtered by drawing blood from the heart under co-anesthesia of sevoflurane and somnopentyl, after which each mouse was weighed to measure the body weight. Next, subcutaneous adipose tissue, brown adipose tissue, mesenteric adipose tissue, perirenal adipose tissue, and epididymal adipose tissue were extracted from each mouse, and the fat weight in each tissue was measured by weighing with a scale. The total weight of adipose tissue other than the brown adipose tissue was calculated as the weight of white adipose tissue from the extracted fat.

In experiment [2] the test system is C57BL/6 male mice. Put plainly: Plasma glucose, cholesterol and insulin of mice fed high-fat diet with 8PN. The experiment is classed as in vivo. The following applies: 8 weeks; for increase in the blood concentration of glucose: vs Group 4, FIG. 8; for increase in the blood concentration of cholesterol: vs Group 4, FIG. 9; for increase in the blood concentration of insulin: vs Group 4, FIG. 10.
Description: as §1, §2, §3
Example 2 was carried out in the same manner as Example 1 up to the slaughtering of the mice. Blood was drawn from each mouse at the time of slaughtering and was centrifuged at 5000 rpm for 10 minutes, and plasma was obtained from the supernatant. The amount of glucose was measured using the Glucose CII Test Wako Kit (available from Fujifilm Wako Pure Chemical Corporation), and the amount of insulin was measured using the LBIS (trade name) Mouse Insulin ELISA Kit (RTU) (available from Fujifilm Wako Pure Chemical Corporation). In addition, the amount of cholesterol was measured using the LabAssay Cholesterol Kit (available from Fujifilm Wako Pure Chemical Corporation).

In experiment [3] the test system is C57BL/6 male mice. In words: Thigh muscle weight of mice fed normal or high-fat diet with 8PN. The class given is in vivo. The settings on record: 8 weeks, p<0.05, FIG. 11.
Description: as §1, §2, §3
Example 3 was implemented in the same manner as Example 1 up to the slaughtering of the mice. At the time of the slaughtering, the thigh muscles were removed from each mouse, and the weight of each muscle was measured by weighing with a scale.

For experiment [4], the target named is T1, pig-derived pancreatic lipase II (Sus scrofa, UniProt P00591).
T1 construct: purchased Sigma
T1 sequence (P00591 1-450): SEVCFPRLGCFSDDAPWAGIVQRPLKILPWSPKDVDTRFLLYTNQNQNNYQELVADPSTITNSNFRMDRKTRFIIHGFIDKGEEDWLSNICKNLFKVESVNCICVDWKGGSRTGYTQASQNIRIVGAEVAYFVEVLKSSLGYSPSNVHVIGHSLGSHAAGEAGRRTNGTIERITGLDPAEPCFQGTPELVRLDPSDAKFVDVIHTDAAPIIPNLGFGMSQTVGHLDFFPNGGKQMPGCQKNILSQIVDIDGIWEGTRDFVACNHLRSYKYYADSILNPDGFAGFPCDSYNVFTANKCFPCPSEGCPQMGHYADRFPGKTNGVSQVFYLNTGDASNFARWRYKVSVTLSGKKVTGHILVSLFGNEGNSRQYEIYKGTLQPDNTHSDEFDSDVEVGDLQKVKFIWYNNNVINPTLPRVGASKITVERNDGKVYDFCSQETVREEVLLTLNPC
In words: Pancreatic lipase activity inhibition (triolein substrate, free fatty acids by NEFA C-Test). The settings on record: 8PN final concentration 1.0, 2.0, 4.0, 7.0 or 10.0 mg/mL; 37° C., 30 minutes; FIG. 12. The class given is biochemical. The method, then:
An enzyme solution was prepared by dissolving pig-derived pancreatic lipase II (available from Sigma) in a 100 mM Tris-HCl buffer solution (pH 7.0) to make a final concentration of 250 μg/mL. In addition, 80 mg of triolein, 10 mg of lecithin, and 5 mg of sodium cholate were dissolved in 9 mL of a 100 mM tris-HCl buffer solution (pH 7.0), and the mixture was subjected to ultrasonic treatment for 10 minutes to prepare a substrate solution that was a homogeneous suspension. […] The reaction was stopped by a heating treatment at 100° C. for 2 minutes, and the amount of free fatty acids was measured through absorbance at a wavelength of 550 nm using the NEFA C-Test Wako Kit (available from Fujifilm Wako Pure Chemical Corporation). […]
Also note that a control was prepared in the same manner as described above with the exception that DMSO was used instead of 8PN. […] The lipase activity inhibition rate was calculated by the following calculation equation (1). Lipase activity inhibition rate (%)={1−((B−A)/(C−A))}×100 (1) • A: Absorbance of blank • B: Absorbance of test reaction solution • C: Absorbance of control

The conditions of experiment [5]: reported, Non-Patent Document 1; cited from earlier work.
The conditions of experiment [6]: reported, Patent Document 1; cited from earlier work.
For experiment [7] the following is noted: reported, Patent Document 2; cited from earlier work.
Setting [8] is: Group 5: high-fat diet with 8PN 0.0005%.
Setting [9] is: Group 6: high-fat diet with 8PN 0.005%.

For `COc1cc(O)c(CC=C(C)C)c(O)c1C(=O)/C=C/c1ccc(O)cc1` [xanthohumol], in the experiment with 3T3-L1 cells, the “differentiation of 3T3-L1 cells” value is “has an effect of suppressing” and the lipid synthesis entry was “an effect of suppressing”. Besides, the weight gain result with rats is recorded as “suppressed”. The “SREBP activation and lipid synthesis” value in the experiment on SREBP is “suppresses”.

With `CC(C)=CCc1c(O)cc(O)c2c1O[C@H](c1ccc(O)cc1)CC2=O` [8PN, 8-prenylnaringenin], in the experiment with C57BL/6 male mice [1] (Group 5: high-fat diet with 8PN 0.0005%, vs Group 4 (high-fat diet without 8PN), FIG. 1), the “increase in body weight” value is “suppressed”. In the experiment with C57BL/6 male mice [1] (setting [8]), the “increase in the fat weight of the subcutaneous adipose tissue” value is given as “suppressed”, the “increase in the fat weight of the brown adipose tissue” value is reported as “suppressed”, the “increase in the fat weight of the mesenteric adipose tissue” value is listed as “suppressed” and the “increase in the fat weight of the perirenal adipose tissue” value is “suppressed”. In the experiment with C57BL/6 male mice [1] (setting [8]), the “increase in the fat weight of the epididymal adipose tissue” value was “suppressed” and the “increase in the fat weight of the white adipose tissue” value is “suppressed”. Besides, the “increase in body weight” value with C57BL/6 male mice [1] (Group 6: high-fat diet with 8PN 0.005%, vs Group 4, FIG. 1) is recorded as “suppressed”. In the experiment on C57BL/6 male mice [1] (setting [9]), the “increase in the fat weight of the subcutaneous adipose tissue” value is “suppressed”, the “increase in the fat weight of the brown adipose tissue” value is “suppressed”, the “increase in the fat weight of the mesenteric adipose tissue” value was “suppressed” and the “increase in the fat weight of the perirenal adipose tissue” value is reported as “suppressed”. In addition, in the experiment with C57BL/6 male mice [1] (setting [9]), the “increase in the fat weight of the epididymal adipose tissue” value is given as “suppressed” and the “increase in the fat weight of the white adipose tissue” value is recorded as “suppressed”. Besides, in the experiment with C57BL/6 male mice [2] (setting [8]), the “increase in the blood concentration of glucose” value is recorded as “suppressed”, the “increase in the blood concentration of cholesterol” value is given as “suppressed” and the “increase in the blood concentration of insulin” value is on record as “suppressed”. Also, in the experiment on C57BL/6 male mice [2] (setting [9]), the “increase in the blood concentration of glucose” value was “suppressed”, the “increase in the blood concentration of cholesterol” value is “suppressed” and the “increase in the blood concentration of insulin” value is given as “suppressed”. Moreover, in the experiment on C57BL/6 male mice [3] (Group 2: normal diet with 8PN 0.0005%, vs Group 1 (normal diet without 8PN)), the “weight of the thigh muscle” value is listed as “increased”. Also, in the experiment on C57BL/6 male mice [3] (Group 3: normal diet with 8PN 0.005%, vs Group 1), the “weight of the thigh muscle” value is given as “increased”. For the same compound, the “weight of the thigh muscle” value in the experiment with C57BL/6 male mice [3] (Group 5: high-fat diet with 8PN 0.0005%, vs Group 4) is reported as “increased”. Besides, in the experiment with C57BL/6 male mice [3] (Group 6: high-fat diet with 8PN 0.005%, vs Group 4), the “weight of the thigh muscle” value is listed as “increased”. Besides, the “lipase activity inhibition rate” value in experiment [4] was “increased in a manner dependent on the concentration of 8PN”. In experiment [5], the estrogen activity entry was “exhibits”. For the same compound, in [6], the angiogenesis inhibition result is reported as “exhibits”. In [7], the “suppression of muscle disuse atrophy” value is recorded as “exhibits”.
